Results taken from article PMC9851200, “Multiparameter phenotypic screening for endogenous TFEB and TFE3 translocation identifies novel chemical series modulating lysosome function” (Autophagy, 2022).
Where two headings read alike, the source gives them in different places.

What was measured:
SH-SY5Y cells [1] = system: SH-SY5Y cells; further: reference of the scale not given here
endogenous TFEB = test: TFEB nuclear translocation, immunocytochemistry high-content imaging; type: cell-based
SH-SY5Y cells [2] = test: AK (adenylate kinase) release ToxiLight cytotoxicity assay; further: reference of the scale not given here
SH-SY5Y cells [3] = test: Nuclear count from microscopy images (cellular growth and toxicity); further: reference of the scale not given here
endogenous TFE3 = test: TFE3 nuclear translocation, immunocytochemistry high-content imaging; type: cell-based
[4] = PKIS2 primary screening, DQ Red BSA intensity
[5] = PKIS2 primary screening, DQ Red BSA spot count

| Structure (SMILES) | DQ Intensity (SH-SY5Y cells [1]; [4]) | DQ Spot (SH-SY5Y cells [1]; [5]) | TFEB % (endogenous TFEB; PKIS2 primary screening) | AK (SH-SY5Y cells [2]; PKIS2 primary screening) | Nuclear Count (SH-SY5Y cells [3]; PKIS2 primary screening) | TFE3 % (endogenous TFE3; PKIS2 primary screening) | DQ Intensity (SH-SY5Y cells [1]; PKIS2 primary screening) | DQ Spot (SH-SY5Y cells [1]; PKIS2 primary screening) | DQ Intensity (SH-SY5Y cells [1]; PKIS2 primary screen, DQ Red BSA intensity) | DQ Spot (SH-SY5Y cells [1]; PKIS2 primary screen, DQ Red BSA spot count) | TFEB % (endogenous TFEB; PKIS2 primary screen) | AK (SH-SY5Y cells [2]; PKIS2 primary screen) | Nuclear Count (SH-SY5Y cells [3]; PKIS2 primary screen) | TFE3 % (endogenous TFE3; PKIS2 primary screen) |
| --- | --- | --- | --- | --- | --- | --- | --- | --- | --- | --- | --- | --- | --- | --- |
| Cl.Oc1ccc(-c2nc(-c3ccccc3)[nH]c2-c2ccncc2)cc1 [UNC10225482A] | 99.60 | 108.10 | 7.63% | 90.33 | 92.35 | 9.08% | – | – | – | – | – | – | – | – |
| CSc1ccc(-c2nc3n(c2-c2ccncc2)CCC3)cc1 [UNC10225486A] | 119.41 | 102.53 | 5.52% | 80.57 | 91.88 | 13.99% | – | – | – | – | – | – | – | – |
| Cl.c1ccc(Cn2ccc3cc(Nc4ncnc5ccccc45)ccc32)cc1 [UNC10225488A] | 101.44 | 98.20 | 3.41% | 113.68 | 128.88 | 8.10% | – | – | – | – | – | – | – | – |
| Cc1ccc(CC(=O)N2CCc3cc(-c4cn(C)c5ncnc(N)c45)ccc32)cc1 [UNC10225490A] | – | – | 5.80% | 123.53 | 101.02 | 14.69% | 104.55 | 111.62 | – | – | – | – | – | – |
| Cc1ccccc1COc1cc(-n2cnc3cc(Cl)ccc32)sc1C(N)=O [UNC10225491A] | – | – | 9.14% | 190.42 | 71.39 | 6.85% | 119.27 | 99.65 | – | – | – | – | – | – |
| Cc1nccc(-c2c(-c3ccc(F)cc3)ncn2CCCN2CCOCC2)n1.Cl [UNC10225493A] | – | – | 4.71% | 100.35 | 97.00 | 13.96% | 90.01 | 96.19 | – | – | – | – | – | – |
| Nc1nccc2scc(-c3ccc4c(c3)CCN4C(=O)Cc3cc(F)ccc3F)c12 [UNC10225494A] | 123.47 | 108.12 | 3.18% | 74.58 | 97.20 | 17.46% | – | – | – | – | – | – | – | – |
| COc1cc2ncn(-c3cc(OCC4CCCCC4)c(C(N)=O)s3)c2cc1OC [UNC10225496A] | – | – | 3.76% | 73.76 | 113.87 | 7.72% | 104.41 | 104.84 | – | – | – | – | – | – |
| Cn1cncc1-c1ccc2ncnc(Nc3ccc(OCc4ccccc4)cc3)c2c1 [UNC10225497A] | 100.86 | 83.02 | 8.56% | 50.65 | 104.34 | 13.09% | – | – | – | – | – | – | – | – |
| Cc1cccc(-c2cc(-c3c[nH]nc3-c3ccccn3)ccn2)c1 [UNC10225499A] | 88.33 | 90.33 | 5.43% | 88.92 | 133.11 | 5.64% | – | – | – | – | – | – | – | – |
| Nc1ncc(-c2cn[nH]c2)c2scc(-c3ccc4c(c3)CCN4C(=O)Cc3ccccc3)c12 [UNC10225500A] | 108.00 | 96.83 | 8.67% | 74.47 | 110.94 | 18.45% | – | – | – | – | – | – | – | – |
| Cc1nnc(-c2ccc(C)c(-c3ccc(C(=O)O)cc3)c2)o1 [UNC10225501A] | – | – | 7.30% | 95.30 | 117.94 | 10.21% | 75.58 | 83.30 | – | – | – | – | – | – |
| O=C(NCc1cccs1)c1cc(C(=O)c2c(Cl)cccc2Cl)c[nH]1 [UNC10225502A] | – | – | – | – | – | – | – | – | 112.22 | 106.20 | 6.92% | 136.34 | 105.30 | 7.89% |
| NCCC(NC(=O)c1cc(Br)c(-c2ccnc3[nH]ccc23)s1)c1ccccc1.O=C(O)C(F)(F)F.O=C(O)C(F)(F)F (stereo not drawn) [UNC10225503A] | 126.00 | 127.76 | 3.19% | 81.01 | 121.43 | 15.14% | – | – | – | – | – | – | – | – |
| CN(C)c1ncnc2nc[nH]c12 [UNC10243858A] | – | – | 5.99% | 79.19 | 91.65 | 16.40% | 152.14 | 119.94 | – | – | – | – | – | – |
| [2H]C([2H])(c1cccc(C(F)(F)F)c1C)n1ccn2c(=O)nc(N3CCOCC3)cc12 [UNC10243860A] | – | – | 4.33% | 87.88 | 110.69 | 12.75% | 104.50 | 118.55 | – | – | – | – | – | – |
| Cc1c(Cn2ccn3c(=O)cc(N4CCOCC4)nc23)cccc1C(F)(F)F [UNC10243861A] | – | – | 1.67% | 106.43 | 146.89 | 6.09% | 74.52 | 79.14 | – | – | – | – | – | – |
| CNc1ncnc2[nH]ncc12 [UNC10243862A] | – | – | 5.21% | 111.70 | 108.49 | 11.00% | 93.16 | 103.80 | – | – | – | – | – | – |
| Nc1ncnc2[nH]c(-c3ccccc3)nc12 [UNC10243863A] | – | – | 9.65% | 85.62 | 66.20 | 10.89% | 154.91 | 119.26 | – | – | – | – | – | – |
| Cc1occc1-c1ncc(OC[C@@H](N)Cc2c[nH]c3ccccc23)cc1-c1ccc2[nH]nc(C)c2c1.O=C(O)C(F)(F)F [UNC10243880A] | – | – | 19.77% | 148.86 | 69.84 | 39.74% | 77.42 | 58.66 | – | – | – | – | – | – |
